For the assay, the target named is Pin1 (Homo sapiens, UniProt Q13526). The experiment in a line: alpha-chymotrypsin protease-coupled PPIase assay. Type of assay: biochemical.
Pin1, sequence (Q13526 whole entry): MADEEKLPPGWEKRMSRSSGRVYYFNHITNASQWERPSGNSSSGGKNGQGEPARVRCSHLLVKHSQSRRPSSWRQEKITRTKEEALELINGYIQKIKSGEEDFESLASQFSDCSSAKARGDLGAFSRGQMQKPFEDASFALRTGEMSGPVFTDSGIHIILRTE

`CC(=O)N[C@@H](COP(=O)(O)O)C(=O)[C@@H]1CCCC[C@H]1C(=O)NCCc1c[nH]c2ccccc12` [compound 1, 1] returned a 50% inhibitory concentration (IC50) of 260 ± 30 µM.
As for `CC(=O)NC(COP(=O)(O)O)C(=O)C1CCCCC1C(=O)NCCc1c[nH]c2ccccc12` (racemic) [rac-2], half-maximal inhibition (IC50) required 61 ± 8 µM.

Usually IC50 stands for the concentration needed to halve the response being measured. Low readings indicate inhibition by little substance, high ones a need for much substance.
